Laboratory results taken from ChEMBL document CHEMBL4665913, “Discovery of CA-4948, an Orally Bioavailable IRAK4 Inhibitor for Treatment of Hematologic Malignancies” (ACS Med Chem Lett, 2020).

Experiments:
[1] = Metabolic stability in human liver microsomes assessed as parent compound remaining at 1 uM measured upto 60 mins in presence of NADPH by LC-MS/MS analysis; assay type: ADME, Microsome; details: read-out: Stabilty
[2] = Metabolic stability in rat liver microsomes assessed as parent compound remaining at 1 uM measured upto 60 mins in presence of NADPH by LC-MS/MS analysis; assay type: ADME, Microsome; details: read-out: Stabilty
in vitro = details: human, Caco-2
[3] = Metabolic stability in mouse liver microsomes assessed as parent compound remaining at 1 uM measured upto 60 mins in presence of NADPH by LC-MS/MS analysis; assay type: ADME, Microsome; details: read-out: Stabilty
[4] = Initial plasma concentration in CD1 mouse at 3 mg/kg, iv by LC-MS/MS analysis; assay type: ADME, organism-based
[5] = Oral bioavailability in CD1 mouse at 10 mg/kg measured up to 24 hrs by LC-MS/MS analysis; assay type: ADME, organism-based; details: in vivo
[6] = Cmax in CD1 mouse at 10 mg/kg, po measured up to 24 hrs by LC-MS/MS analysis; assay type: ADME, organism-based; set-up: route oral, dose 10 mg/kg, time <=24; details: in vivo
[7] = Half life in CD1 mouse at 3 mg/kg, iv measured up to 24 hrs by LC-MS/MS analysis; assay type: ADME, organism-based; details: in vivo
[8] = AUC (0 to t) in CD-1 mouse at 3 mg/kg, iv measured up to 24 hrs by LC-MS/MS analysis; assay type: ADME, organism-based; set-up: route intravenous, dose 3 mg/kg, time <=24; details: in vivo
[9] = Tmax in CD1 mouse at 10 mg/kg, po measured up to 24 hrs by LC-MS/MS analysis; assay type: ADME, organism-based; details: in vivo
[10] = Clearance in CD1 mouse at 3 mg/kg, iv measured up to 24 hrs by LC-MS/MS analysis; assay type: ADME, organism-based; details: in vivo
[11] = AUC (0 to t) in CD-1 mouse at 10 mg/kg, po measured up to 24 hrs by LC-MS/MS analysis; assay type: ADME, organism-based; set-up: route oral, dose 10 mg/kg, time <=24; details: in vivo
[12] = Volume of distribution in CD1 mouse at 3 mg/kg, iv measured up to 24 hrs by LC-MS/MS analysis; assay type: ADME, organism-based; details: in vivo

SMILES	remaining at 1 h, 1 µM [1]	remaining at 1 h, 1 µM [2]	Papp A→B at 2 h, 10 µM (in vitro)	remaining at 1 h, 1 µM [3]	C0 [4]	bioavailability [5]	Cmax [6]	half-life [7]	AUC(0-t) at 24 h [8]	Tmax [9]	clearance [10]	AUC(0-t) at 24 h [11]	Vd [12]
Cc1cc(-c2nc(C(=O)Nc3cc4oc(N5CCOCC5)nc4nc3N3CCCC(F)C3)co2)ccn1 (configuration not stated)	67%	91%	15.8 ×10⁻⁶ cm/s	89%	–	–	–	–	–	–	–	–	–
Cc1cc(-c2nc(C(=O)Nc3cc4oc(N5CCOCC5)nc4nc3N3CC[C@H](O)C3)co2)ccn1	> 95%	> 95%	21.9 ×10⁻⁶ cm/s	> 95%	788 ng/mL	100%	2530 ng/mL	48 min	928 ng·h/mL	18 min	52.2 mL/min/kg	4490 ng·h/mL	5.57 L/kg
Cc1cc(-c2nc(C(=O)Nc3cc4oc(N5CCOCC5)nc4nc3C3CC3)co2)ccn1	87%	> 95%	49.4 ×10⁻⁶ cm/s	13%	–	–	–	–	–	–	–	–	–
Cc1cc(-c2nc(C(=O)Nc3cc4oc(N5CCOCC5)nc4nc3N3CCC(F)CC3)co2)ccn1	69%	68%	–	50%	–	–	–	–	–	–	–	–	–
Cc1cc(-c2nc(C(=O)Nc3cc4oc(N5CCOCC5)nc4nc3N3CC[C@@H](N)C3)co2)ccn1	> 95%	> 95%	1 ×10⁻⁶ cm/s	82%	–	–	–	–	–	–	–	–	–
Cc1cc(-c2nc(C(=O)Nc3cc4oc(N5CCOCC5)nc4nc3N3CCC(O)CC3)co2)ccn1	> 95%	> 95%	13.5 ×10⁻⁶ cm/s	> 95%	–	–	–	–	–	–	–	–	–
